Patent US8431593B2, “Heteroaryl amide derivatives” (H. Lundbeck A/S, priority 2006, dated 2013)
pIC50: −log10 of the molar value.

target: T1, P2X7 receptor (Homo sapiens, UniProt Q99572); assay: P2X7 calcium mobilization assay, high throughput, antagonist activity (Example 4A); type: cell-based; details: not given
T1 construct: host or cells: SH-SY5Y
T1 sequence (Q99572 1-595): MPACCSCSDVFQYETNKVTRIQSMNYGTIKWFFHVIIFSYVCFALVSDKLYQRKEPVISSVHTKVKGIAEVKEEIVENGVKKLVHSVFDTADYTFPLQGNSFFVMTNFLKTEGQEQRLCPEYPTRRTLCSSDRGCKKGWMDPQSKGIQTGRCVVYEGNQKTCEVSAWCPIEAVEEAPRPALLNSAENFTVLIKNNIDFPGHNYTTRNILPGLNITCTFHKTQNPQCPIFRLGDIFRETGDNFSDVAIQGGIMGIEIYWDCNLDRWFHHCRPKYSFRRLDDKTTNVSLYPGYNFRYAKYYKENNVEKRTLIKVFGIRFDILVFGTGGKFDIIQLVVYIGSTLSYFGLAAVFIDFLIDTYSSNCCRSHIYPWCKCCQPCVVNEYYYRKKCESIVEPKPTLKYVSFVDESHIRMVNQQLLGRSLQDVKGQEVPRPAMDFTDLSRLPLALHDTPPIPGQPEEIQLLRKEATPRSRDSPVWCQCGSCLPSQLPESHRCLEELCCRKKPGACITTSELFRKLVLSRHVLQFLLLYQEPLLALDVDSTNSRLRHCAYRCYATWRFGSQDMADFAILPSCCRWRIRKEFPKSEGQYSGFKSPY
Method in brief: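 Antagonism was measured as calcium mobilization on FLIPR^TETRA after a 1 h room-temperature compound preincubation of dye-loaded cells. Baseline from no-agonist wells was subtracted from each well's maximum RFU.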

| SMILES | pIC50 |
| --- | --- |
| O=C(O)c1cnn(Cc2cn3c(C(=O)NCC45CC6CC(CC(C6)C4)C5)cccc3n2)c1 [Compound 203, 1-({5-[(adamantan-1-ylmethyl)carbamoyl]imi-dazo[1,2-a]pyridin-2-yl}methyl)-1H-pyrazole-4-carboxylic acid] | > 5.70 |
| C[C@@H](O)CNC(=O)Cc1cn2c(C(=O)NCC34CC5CC(CC(C5)C3)C4)cccc2n1 [Compound 28, N-(adamantan-1-ylmethyl)-2-(2-{[(2R)-2-hydroxy-propyl]amino}-2-oxoethyl)imi-dazo[1,2-a]pyridine-5-carboxamide] | > 5.70 |

same assay, conditions: 50% decrease in the fluorescence response of cells exposed to 80 μM 2′(3′)-O-(4-benzoyl-benzoyl)adenosine 5′-triphosphate; Example 4A; read-out: IC50

| pIC50 | SMILES |
| --- | --- |
| > 5.70 | CN(C(=O)c1cn2c(C(=O)NCC34CC5CC(CC(C5)C3)C4)cccc2n1)C1CCCNC1 (centres unmarked) [Compound 605, 5-N-(adamantan-1-ylmethyl)-2-N-methyl-2-N-piperidin-3-ylimidazo[1,2-a]pyridine-2,5-dicarboxamide] |
| > 5.70 | CC1(C)[C@@H]2CC[C@@H](CNC(=O)c3cccc4nc(CC(=O)N5CCOC(CN)C5)cn34)[C@H]1C2 (stereo partly drawn) [Compound 594, 2-{2-[2-(aminomethyl)morpholin-4-yl]-2-oxoethyl}-N-{[(1R,2R,5R)-6,6-dimethylbicyclo [3.1.1]hept-2-yl]methyl}imidazo[1,2-a]pyridine-5-carboxamide] |
| > 5.70 | CN(C(=O)c1cn2c(C(=O)NCC34CC5CC(CC(C5)C3)C4)cccc2n1)C1CCNCC1 [Compound 606, 5-N-(adamantan-1-ylmethyl)-2-N-methyl-2-N-piperidin-4-ylimidazo[1,2-a]pyridine-2,5-dicarboxamide] |

same assay, conditions: 50% decrease in the fluorescence response of cells exposed to 80 μM of 2′(3′)-O-(4-benzoyl-benzoyl)adenosine 5′-triphosphate; Example 4A; read-out: IC50

| pIC50 | SMILES |
| --- | --- |
| > 5.70 | CN(C)CCCNC(=O)c1cn2c(C(=O)NCC34CC5CC(CC(C5)C3)C4)cccc2n1 [Compound 647, 5-N-(adamantan-1-ylmethyl)-2-N-[3-(dimethylamino)propyl]imidazo [1,2-a]pyridine-2,5-dicarboxamide] |
| > 5.70 | NC1CN(C(=O)c2cn3c(C(=O)NCC45CC6CC(CC(C6)C4)C5)cccc3n2)C1 [Compound 635, N-(adamantan-1-ylmethyl)-2-[(3-aminoazetidin-1-yl)carbonyl]imidazo[1,2-a]pyridine-5-carboxamide] |
| > 5.70 | N[C@@H]1CCN(C(=O)CCc2cn3c(C(=O)NCC45CC6CC(CC(C6)C4)C5)cccc3n2)C1 [Compound 778, N-(adamantan-1-ylmethyl)-2-{3-[(3R)-3-aminopyrrolidin-1-yl]-3-oxopropyl} imidazo[1,2-a] pyridine-5-carboxamide] |
| > 5.70 | O=C(NCCN1CCCCC1)c1cn2c(C(=O)NCC34CC5CC(CC(C5)C3)C4)cccc2n1 [Compound 650, 5-N-(adamantan-1-ylmethyl)-2-N-(2-piperidin-1-ylethyl)imidazo[1,2-a]pyridine-2,5-dicarboxamide] |
| > 5.70 | CCN(CC)C(=O)CC(C(=O)O)c1cn2c(C(=O)NCC34CC5CC(CC(C5)C3)C4)cccc2n1 (centres unmarked) [Compound 811, 2-{5-[(adamantan-1-ylmethyl)carbamoyl]imidazo[1,2-a]pyridin-2-yl}-4-(diethylamino)-4-oxobutanoic acid] |
| > 5.70 | CCNC(=O)CC1(c2cn3c(C(=O)NCC45CC6CC(CC(C6)C4)C5)cccc3n2)CC(=O)N(CC)C1=O (centres unmarked) [Compound 808, N-(adamantan-1-ylmethyl)-2-{1-ethyl-3-[2-(ethylamino)-2-oxoethyl]-2,5-dioxopyrrolidin-3-yl}imidazo[1,2-a]pyridine-5-carboxamide] |

same assay, conditions: 50% decrease in the fluorescence response of cells exposed to 80 μM of 2′(3′)-O-(4-benzoyl-benzoyl)adenosine 5′-triphosphate; determined as in Example 4A; read-out: IC50

| pIC50 | SMILES |
| --- | --- |
| > 5.70 | O=C(Cc1cn2c(C(=O)NCC3(c4ccc(Cl)cc4)CCCCC3)cccc2n1)N[C@@H]1CCNC1 [Compound 961, N-{[1-(4-chlorophenyl)cyclohexyl]methyl}-2-{2-oxo-2-[(3R)-pyrrolidin-3-ylamino]ethyl} imidazo [1,2-a]pyridine-5-carboxamide] |
| > 5.70 | CCC(C)NC(=O)Cc1cn2c(C(=O)NCC3(c4ccc(Cl)cc4)CCCCC3)cccc2n1 (centres unmarked) [Compound 870, 2-[2-(sec-butylamino)-2-oxoethyl]-N-{[1-(4-chlorophenyl)cyclohexyl]methyl}imidazo [1,2-a]pyridine-5-carboxamide] |
| > 5.70 | CCOC(=O)C(CC1CC1)c1cn2c(C(=O)NCC3(c4ccc(Cl)cc4)CCCCC3)cccc2n1 (centres unmarked) [Compound 1009, ethyl 2-[5-({[1-(4-chlorophenyl)cyclohexyl]methyl}carbamoyl)imidazo[1,2-a]pyridin-2-yl]-3-cyclopropylpropanoate] |
| > 5.70 | CCOC(=O)C(CCC(C)C)c1cn2c(C(=O)NCC34CC5CC(CC(C5)C3)C4)cccc2n1 (centres unmarked) [Compound 907, ethyl 2-{5-[(adamantan-1-ylmethyl)carbamoyl]imidazo[1,2-a]pyridin-2-yl}-5-methylhexanoate] |
| > 5.70 | CCCCCCCC(CNC(=O)c1cccc2nc(CC(=O)O)cn12)c1ccccc1 (centres unmarked) [Compound 966, {5-[(2-phenylnonyl)carbamoyl]imidazo[1,2-a]pyridin-2-yl} acetic acid] |
| > 5.70 | CC(C)CC(CNC(=O)c1cccc2nc(CC(=O)N[C@@H]3CCNC3)cn12)c1ccc(Cl)cc1 (stereo partly drawn) [Compound 960, N-[2-(4-chlorophenyl)-4-methylpentyl]-2-{2-oxo-2-[(3R)-pyrrolidin-3-ylamino]ethyl} imidazo[1,2-a] pyridine-5-carboxamide] |
| > 5.70 | CCOC(=O)C(Cc1ccc(Cl)cc1)c1cn2c(C(=O)NCC(CC(C)C)c3ccc(Cl)cc3)cccc2n1 (centres unmarked) [Compound 932, ethyl 3-(4-chlorophenyl)-2-(5-{[2-(4-chlorophenyl)-4-methylpentyl]carbamoyl}imidazo [1,2-a]pyridin-2-yl)propanoate] |
| > 5.70 | CCCCC(C(=O)OCC)c1cn2c(C(=O)NCC34CC5CC(CC(C5)C3)C4)cccc2n1 (centres unmarked) [Compound 906, ethyl 2-{5-[(adamantan-1-ylmethyl)carbamoyl]imidazo[1,2-a]pyridin-2-yl} hexanoate] |
| > 5.70 | CC(C)CC(CNC(=O)c1cccc2nc(CN(C)CCO)cn12)c1ccc(Cl)cc1 (centres unmarked) [Compound 943, N-[2-(4-chlorophenyl)-4-methylpentyl]-2-{[(2-hydroxyethyl)(methyl)amino]methyl}imidazo [1,2-a]pyridine-5-carboxamide] |

same assay, conditions: P2X7 calcium mobilization, Example 4A; 50% decrease in the fluorescence response of cells exposed to 80 μM of (2′(3′)-O-(4-benzoyl-benzoyl)adenosine 5′-triphosephate); read-out: IC50

| pIC50 | SMILES |
| --- | --- |
| > 5.70 | O=C(NCC(c1ccc(Cl)cc1)N1CCOCC1)c1cccc2ncc(Cl)n12 (centres unmarked) [Compound 1055, 3-chloro-N-[2-(4-chlorophenyl)-2-morpholin-4-ylethyl]imidazo[1,2-a]pyridine-5-carboxamide] |

same assay, conditions: SH-SY5Y cells; 50% decrease in fluorescence response to 80 μM BzATP; read-out: IC50

| pIC50 | SMILES |
| --- | --- |
| > 5.70 | CC(c1cn2c(C(=O)NCC34CC5CC(CC(C5)C3)C4)cccc2n1)N1CC[C@@H](N)C1 (stereo partly drawn) [Compound 205, N-(adamantan-1-ylmethyl)-2-{1-[(3R)-3-aminopyrrolidin-1-yl]ethyl}imidazo[1,2-a]pyridine-5-carboxamide] |
| > 5.70 | COC1CCN(C(=O)Cc2cn3c(C(=O)NCC45CC6CC(CC(C6)C4)C5)cccc3n2)CC1 [Compound 42, N-(adamantan-1-ylmethyl)-2-[2-(4-methoxypiperidin-1-yl)-2-oxoethyl]imidazo[1,2-a]pyridine-5-carboxamide] |
| > 5.70 | O=C(NCC12CC3CC(CC(C3)C1)C2)c1cccc2nc(COC3CCNC3)cn12 (centres unmarked) [Compound 190, N-(adamantan-1-ylmethyl)-2-[(pyrrolidin-3-yloxy)methyl]imidazo[1,2-a]pyridine-5-carboxamide] |
| > 5.70 | CC(C)[C@H](CO)NC(=O)c1cn2c(C(=O)NCC34CC5CC(CC(C5)C3)C4)cccc2n1 [Compound 85, 5-N-(adamantan-1-ylmethyl)--[(1R)-1-(hydroxymethyl)-2-methyl-propyl]imidazo[1,2-a]pyridine-2,5-dicarboxamide] |
| > 5.70 | O=C(NCC12CC3CC(CC(C3)C1)C2)c1cccc2nc(CN3CCCC(O)C3)cn12 (centres unmarked) [Compound 135, N-(adamantan-1-ylmethyl)-2-[(3-hydroxypiperidin-1-yl)methyl]imidazo[1,2-a]pyridine-5-carboxamide] |

same assay, conditions: fluorescence response of cells exposed to 80 μM 2′(3′)-O-(4-benzoyl-benzoyl)adenosine 5′-triphosphate; Example 4A; read-out: IC50

| pIC50 | SMILES |
| --- | --- |
| > 5.70 | CCOC(=O)C(C)c1cn2c(C(=O)NCC34CC5CC(CC(C5)C3)C4)cccc2n1 (centres unmarked) [Compound 338, ethyl 2-{5-[(adamantan-1-ylmethyl)carbamoyl]imidazo[1,2-a]pyridin-2-yl}propanoate] |
| > 5.70 | CC(=O)CCc1cn2c(C(=O)NCC34CC5CC(CC(C5)C3)C4)cccc2n1 [Compound 353, N-(adamantan-1-ylmethyl)-2-(3-oxobutyl)imidazo[l ,2-a]pyridine-5-carboxamide] |
| > 5.70 | CCCCCN(CCO)C(=O)c1cn2c(NC(=O)CC34CC5CC(CC(C5)C3)C4)cccc2n1 [Compound 410, 5-[(adamantan-1-ylacetyl)amino]-N-(2-hydroxyethyl)-N-pentylimidazo[1,2-a]pyridine-2-carboxamide] |
